Structures are written as SMILES. Values joined by “and” are separate entries in the source; they are usually repeats but may differ in a detail not shown here. Identical values can stand only once.

Data set [1] concerns freshly isolated rat hepatocytes. To be noted: 250 μM prodrug. On the procedure:
PMEA prodrugs were tested.
Hepatocytes were prepared from fed Sprague-Dawley rats (250–300 g) according to the procedure of Berry and Friend (Berry, M. N. Friend, D. S., J. Cell Biol. 43:506–520 (1969)) as modified by Groen (Groen, A. K. et al., Eur. J. Biochem 122:87–93 (1982)). Hepatocytes (60 mg/ml wet weight, >85% trypan blue viability) were incubated in 2 ml of krebs-bicarbonate buffer containing 20 mM glucose, and 1 mg/ml BSA for 4 hours in the presence of 250 μM PMEA prodrugs (from 25 mM stock solutions of prodrugs in methanol). At appropriate time points throughout the incubation (0, 1, 2, 4 hours), 400-μl aliquots of the cell suspension were taken and centrifuged through a silicon/mineral oil layer into 10% perchloric acid to extract intracellular nucleotides. The acidic cell extracts were neutralized with 0.3 volumes of 3M KOH/3M […] before evaluating PMEApp levels by ion exchange HPLC (Hewlett Packard 1050) using a Whatman Partisphere SAX (5 μm, 4.6×125 mm) column. Samples were loaded onto the column in 0.3M-ammonium phosphate buffer pH 3.5 and eluted from the column with a gradient to 0.8 M ammonium phosphate pH 3.5.

Data set [2] can be described thus: Tissue distribution of PMEA equivalents after oral tritiated Compound 4 and bis POM PMEA in rats.
Method: Total tritium counts were analyzed in solubilized samples of liver organ, kidney, plasma, urine, red blood cells, small intestine, as well as small intestine contents and feces obtained at various time points over 24 hours. Liver organ specificity was assessed by comparison of the temporal profiles of total tritium in liver organ versus kidney, small intestine, plasma, and red blood cells. Metabolite profiles in perchloric acid extracts of liver organ, kidney, small intestine, feces and urine were analyzed by HPLC.
The procedure of data set [3]: Intact prodrug and the metabolite 9-[2-(phosophonomethoxy)ethyl]adenine (PMEA) and the respective mono-acids were measured in the plasma at 0 (predose), 0.33, 1, 3, 5, 8, and 12 hrs post dose by HPLC using fluorescence detection. The pharmacokinetic parameters were calculated based on noncompartmental analysis of the concentration-time profile.
Data set [4] deals with human liver microsomes. Put plainly: In vitro activation of enantiomers in human liver microsomes (glutathione by-product capture). To be noted: 2 mg/mL human liver microsomes, glutathione adduct of by-product quantified. Type of data set: in vitro ADME. On the procedure:
The two enantiomers were compared for activation in human liver microsomes.
Human liver microsomes were purchased from In Vitro Technologies (IVT1032). […] The reactions were initiated by addition of NADPH following a 2-minute preincubation. Reactions were quenched with 60% methanol at 0, 2.5, 5, and 7.5 minutes. L-Glutamyl-L-(S-(3-oxo-3-(3-chlorophenyl)propyl)cysteinylglycine, a glutathione adduct of the by-product of prodrug activation, 3-Cl-phenyl vinyl ketone, was quantified following extraction of the reaction with 1.5 volumes of methanol. The extracted samples were centrifuged at 14,000 rpm in an Eppendorf microfuge and the supernatant analyzed by HPLC for L-Glutamyl-L-(S-(3-oxo-3-(3-chlorophenyl)propyl)cysteinylglycine content. Spiked L-Glutamyl-L-(S-(3-oxo-3-(3-chlorophenyl)propyl)cysteinylglycine (lot 20000127) standards (1–30 μM) were prepared in 2 mg/ml microsomes under reaction conditions and then quenched and processed in an identical fashion to unknown samples. For HPLC analysis, the loading mobile phase buffer (Buffer A) consisted of a 9:1 ratio (v/v) of 20 mM potassium phosphate, pH 6.2 and acetonitrile. Extract (100 uL) was injected onto a Beckman Ultrasphere ODS column (4.6×250 […], part#235329). […] The elution of L-Glutamyl-L-(S-(3-oxo-3-(3-chlorophenyl)propyl)cysteinylglycine (retention time 10.4 minutes) was monitored at 245 nm.

The test system of data set [5] is freshly isolated rat hepatocytes. The experiment in a line: Hepatotoxicity parameters in isolated normal and dexamethasone-induced rat hepatocytes.
Method: Normal fed Sprague-Dawley rats weighing 280–310 g were administered dexamethasone intraperitoneally at 50 mg/kg once a day for four days. Dexamethasone was purchased from Sigma (lot#119H1328) and formulated as a suspension in corn oil (Sigma lot#107H1649) at 50 mg/mL. On the fifth day rats were used for hepatocyte isolations. […] Effects on glutathione levels were assessed by the DTNB (Ellman's reagent) method and viability was determined by the trypan blue exclusion assay and hepatic enzyme leakage assays (LDH, AST). […] Both assays were adapted from the protocol insert for a test tube assay to a microtiter plate assay.
Data set [6] deals with human liver microsomes. The experiment in a line: Kinetics of activation of Compound 4 to PMEA by human liver microsomes. Format: in vitro ADME. To be noted: 2 mg/mL human liver microsomes, 10 minutes, 37° C.
Method: The kinetics of activation of Compound 4 by the microsomal fraction of human liver were determined.
Human liver microsomes were purchased from In Vitro Technologies (IVT). Lot 1011 was prepared from a pool of 10 male donors with documented CYP3A4 activity (testosterone 6β-hydroxylation rate of 5.7 nmol/mg/min; IVT). […] Following a 2-minute preincubation at 37° C., reaction mixtures containing 100 mM KH2PO4, 2 mg/mL human liver microsomes, and 0, 30, 60, 100, 200 and 400 μM Compound 4 were started by addition of NADPH to 2 mM. The reaction was carried out for 10 minutes in an Eppendorf Thermomixer 5436 at 37° C., speed 6. […] Reactions were terminated by the addition of 1.5 volumes of methanol and extracts were pelleted at 14,000 rpm in an Eppendorf microfuge for 20 minutes. The supernatants (200 μl) were evaporated under vacuum and heat to dryness before resuspending in 80 μL buffer A (see below). Spiked standards of 9-[2-(phosophonomethoxy)ethyl]adenine, (PMEA, lot 980397, Metabasis Therapeutics) were prepared in the reaction mixture, and quenched and processed in an identical fashion. The ion-pairing buffer (Buffer A) consisted of 10 mM ammonium phosphate and 2.5 mM octyltriethylammonium phosphate, pH 5.5. After resuspension, samples were analyzed for PMEA by reverse phase HPLC. […]
In data set [7] the test system is liver microsomes isolated from rats induced with dexamethasone. Put plainly: In vitro activation of PMEA prodrug analogues to PMEA by rat liver microsomes. To be noted: 1 mg/mL microsomes, 2 mM NADPH, 5 minutes, 37° C., PMEA formation. On the procedure: PMEA prodrug analogues were tested for activation to PMEA in reactions catalyzed by the microsomal fraction of rat liver.
Prodrugs (25 and 250 μM) were tested for activation by liver microsomes isolated from rats induced with dexamethasone to enhance CYP3A4 activity (Human Biologics Inc., Phoenix Ariz.). Reactions were conducted in 0.1 M KH2PO4, pH 7.4, in the presence of 2 mM NADPH and liver microsomes (1 mg/mL). Reaction mixtures were incubated for 5 minutes in an Eppendorf Thermomixer 5436 (37° C., speed 6). Reactions were terminated by the addition of 1.5 volumes of methanol. The resulting extracts were clarified by centrifugation at 14,000 rpm in an Eppendorf microfuge (20 minutes). The supernatants (200 μL) were evaporated under vacuum and heat to dryness before resuspending in 80 μL of buffer A (see below) for PMEA analysis. Spiked standards of 9-[2-(phosophonomethoxy)ethyl]adenine, (PMEA, lot 980397, Metabasis Therapeutics) were prepared in the same reaction mixture and processed in an identical fashion. After resuspension, samples were analyzed by reverse phase HPLC (Altima C-18 column) with use of an ion-pairing buffer (Buffer A) consisting of 10 mM ammonium phosphate, 2.5 mM octyltriethylammonium phosphate, pH 5.5. Samples were loaded in Buffer A and eluted with a methanol gradient from 40% to 80% over 20 minutes. Detection was at 265 nm.

[8] abbreviates: 1 mM Compound 4, normal rat hepatocytes.

In the case of `Nc1ncnc2c1ncn2CCOCP1(=O)OCCC(c2cccc(Cl)c2)O1` (racemic) [Compound 4], the “Rat Hepatocytes, PMEApp formation, 250 μM, AUC 0–4 h” value in data set [1] came to 109.3 nmol·h/g. Moreover, in data set [2] (30 mg/kg PMEA equivalents p.o.), the “Compound 4/bisPOM PMEA (fold difference), Kidney” value is recorded as 0.26 fold; the “Compound 4/bisPOM PMEA (fold difference), Liver organ” value was 3.1 fold and 3.11 fold; the “Compound 4/bisPOM PMEA (fold difference), Small Intestine” value was 0.04 fold; the “Fold decrease of exposure of PMEA equivalents in kidney relative to bis POM PMEA” value is recorded as 3.8 fold. The “Fold decrease of exposure of PMEA equivalents in small intestine relative to bis POM PMEA” value in data set [2] (30 mg/kg PMEA equivalents p.o.) is on record as 25 fold. For the same compound, the “Dose found as intact prodrug in feces” value in data set [2] (after 24 hours, p.o.) is approximately 60%. Also, in data set [3] (after 30 mg/kg PMEA equivalents p.o. of prodrug, rats), the “Plasma half-life of breakdown product 9-{2-[1-{(3-chlorophenyl)-1-propyl-3-hydroxy}phosphonomethoxy]ethyl}adenine” value was approximately 2.1 h. The “Intact prodrug in plasma” value in data set [3] (rat, in vivo) is listed as “observed in plasma”. The “Activation (25 μM)” value in the data set on human liver microsomes [4] (25 μM) was 38 pmol/mg/min. Moreover, the “Activation (250 μM)” value in the data set on human liver microsomes [4] (250 μM) came out at 283 pmol/mg/min. Also, the “Viability or hepatic enzyme leakage following glutathione depletion” value in data set [5] (250 μM and 1 mM, hepatocytes from dexamethasone pre-treated rats) is “no significant changes”. Also, the “Glutathione reduction, 250 μM” value in data set [5] (250 μM, hepatocytes from dexamethasone pre-treated rats, 2-hour incubation) is given as 50%. Also, in data set [5] (setting [8]), the “Glutathione levels, normal hepatocytes” value is “no significant decrease” and the “Viability or hepatic enzyme leakage, normal hepatocytes” value is “no significant changes”. In data set [5] (1 mM, hepatocytes from dexamethasone pre-treated rats, 2-hour incubation), the “Glutathione reduction, 1 mM” value was more than 95%. Moreover, in the data set with human liver microsomes [6], the Km was 11 µM. The “Activation Rate, Dex. Rat Liver Microsomes, 25 μM” value in data set [7] (25 μM prodrug) is 6.2 nmol/min/mg. Besides, in data set [7] (250 μM prodrug), the “Activation Rate, Dex. Rat Liver Microsomes, 250 μM” value amounted to 10.9 nmol/min/mg.
